Laboratory results taken from US10961215B2, “N-aryl and N-heteroaryl piperidine derivatives as liver X receptor beta agonists, compositions, and their use” (Merck Sharp & Dohme Corp., priority 2016, dated 2021).

Legend:
[1] = target: T1, GST tagged LXRbeta LBD (ligand binding domain) (Homo sapiens, UniProt P55055); experiment: LanthaScreen TR-FRET Liver X Receptor Coactivator Assay, LXR beta-LBD (co-activator recruitment; IP and % Emax relative to T0901317); format: biochemical; details: for EC50: Inflection Point of co-activator recruitment, LXR beta-LBD, TR-FRET; for Emax: read-out: LXR beta actiivty at max dose (%)
T1 construct: purchased Invitrogen pv4658.pps
T1 sequence (P55055 222-460 limits assumed): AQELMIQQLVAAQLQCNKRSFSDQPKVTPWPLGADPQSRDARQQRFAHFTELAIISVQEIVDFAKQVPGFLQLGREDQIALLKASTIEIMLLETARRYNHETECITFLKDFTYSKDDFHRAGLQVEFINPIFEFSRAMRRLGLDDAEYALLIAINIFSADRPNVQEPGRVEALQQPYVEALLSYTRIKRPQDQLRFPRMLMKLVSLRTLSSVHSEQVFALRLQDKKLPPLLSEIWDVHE
How it was run: (§1)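 Compounds were first combined with the GST-LBD protein. A premixed fluorescein coactivator peptide and terbium-labelled anti-GST antibody was then added. Plates were incubated at room temperature and TR-FRET measured.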

[2] = target: T2, GST tagged LXRalpha LBD (ligand binding domain) (Homo sapiens, UniProt Q13133); experiment: LanthaScreen TR-FRET Liver X Receptor Coactivator Assay, LXR alpha-LBD (co-activator recruitment; IP and % Emax relative to T0901317); format: biochemical; details: for LXR alpha IP (nM): Inflection Point of co-activator recruitment, LXR alpha-LBD, TR-FRET; for Emax: read-out: LXR alpha actiivty at max dose (%)
T2 construct: purchased Invitrogen pv4655
T2 sequence (Q13133 209-447 limits assumed): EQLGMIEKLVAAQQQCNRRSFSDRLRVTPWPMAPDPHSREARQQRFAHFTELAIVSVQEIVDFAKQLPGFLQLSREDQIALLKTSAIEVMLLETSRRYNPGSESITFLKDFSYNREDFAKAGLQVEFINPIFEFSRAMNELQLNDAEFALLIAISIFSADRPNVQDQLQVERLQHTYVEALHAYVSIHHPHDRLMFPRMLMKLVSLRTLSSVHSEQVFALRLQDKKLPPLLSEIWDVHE
How it was run: as §1

[3] = efficacy at max dose in relation to reference T0901317, LXR beta-LBD
[4] = efficacy at max dose in relation to reference T0901317, LXR alpha-LBD

| Compound | EC50 [1] | Emax [1, 3] | LXR alpha IP (nM) [2] | Emax [2, 4] | LXR beta actiivty at max dose (%) [1, 3] | LXR alpha actiivty at max dose (%) [2, 4] |
| --- | --- | --- | --- | --- | --- | --- |
| COc1cccc([C@@](O)(C(=O)N(C)CCCC2CCN(c3ccc(C(=O)N(C)C)c(Cl)n3)CC2)C(F)F)c1 [Example 1-53, (R)-2-chloro-6-(4-(3-(3,3-difluoro-2-hydroxy-2-(3-methoxyphenyl)-N-methylpropanamido)propyl)piperidin-1-yl)-N,N-dimethylnicotinamide] | 580 nM | 43% | No IP | 0% |  |  |
| COc1cccc(C2(C(=O)N(C)CCCC3CCN(c4ccc(C(=O)N(C)C)c(Cl)n4)CC3)CCOCC2)c1 [Example 1-44, 2-chloro-6-(4-(3-(4-(3-methoxyphenyl)-N-methyltetrahydro-2H-pyran-4-carboxamido)propyl)piperidin-1-yl)-N,N-dimethylnicotinamide] | 822 nM | 39% | No IP | 0% |  |  |
| COc1cccc([C@@](O)(C(=O)NCCCC2CCN(c3ccc(C(=O)N(C)C)c(Cl)n3)CC2)C(F)(F)F)c1 [Example 5-23, (R)-2-chloro-N,N-dimethyl-6-(4-(3-(3,3,3-trifluoro-2-hydroxy-2-(3-methoxyphenyl)propanamido)propyl)piperidin-1-yl) nicotinamide] | 275 nM |  | No IP |  | 73% | 16% |
| CN(C)C(=O)c1ccc(N2CCC(CCCN(C)C(=O)[C@](O)(c3ccccc3)C3CC3)CC2)nc1Cl [Example 1-24, (R)-2-chloro-6-(4-(3-(2-cyclopropyl-2-hydroxy-N-methyl-2-phenylacetamido)propyl)piperidin-1-yl)-N,N-dimethylnicotinamide] | 351 nM | 59% | No IP | 12% |  |  |
| Cc1cccc([C@](O)(C(=O)N(C)CCCC2CCN(c3ccc(C(=O)N(C)C)c(Cl)n3)CC2)C(F)(F)F)c1 [Example 1-16, (S)-2-chloro-N,N-dimethyl-6-(4-(3-(3,3,3-trifluoro-2-hydroxy-N-methyl-2-m-tolylpropanamido)propyl)piperidin-1-yl)nicotinamide] | 179 nM | 54% | No IP | 1% |  |  |
| COc1cccc([C@@](O)(C(=O)N(C)CC2CC3(CCN(c4ccc(C(=O)N(C)C)c(Cl)n4)CC3)C2)C(F)(F)F)c1 [Example 14-1, 2-chloro-N,N-dimethyl-6-(2-(((R)-3,3,3-trifluoro-2-hydroxy-2-(3-methoxyphenyl)-N-methylpropanamido)methyl)-7-azaspiro[3.5]nonan-7-yl)nicotinamide] | 35 nM | 42% | No IP | 5% |  |  |
| COc1cccc([C@@](O)(C(=O)N(C)CC[C@H]2CC23CCN(c2ccc(C(=O)N(C)C4CC4)c(Cl)n2)CC3)C(F)(F)F)c1 [Example 7-18, 2-chloro-N-cyclopropyl-N-methyl-6-((R)-1-(2-((R)-3,3,3-trifluoro-2-hydroxy-2-(3-methoxyphenyl)-N-methylpropanamido)ethyl)-6-azaspiro[2.5]octan-6-yl)nicotinamide] | 45 nM | 57% | No IP | 16% |  |  |
| CN(C)C(=O)c1ccc(N2CCC(CCCN(C)C(=O)C3(c4ccccc4)CCC3)CC2)nc1Cl [Example 1-43, 2-chloro-N,N-dimethyl-6-(4-(3-(N-methyl-1-phenyl-cyclobutanecarboxamido)propyl)piperidin-1-yl)nicotinamide] | 110 nM | 54% | No IP | 11% |  |  |
| CN(C)C(=O)c1ccc(N2CCC(CCCN(C)C(=O)[C@](C)(O)c3ccccc3)CC2)nc1Cl [Example 1-20, (R)-2-chloro-6-(4-(3-(2-hydroxy-N-methyl-2-phenylpropanamido)propyl)piperidin-1-yl)-N,N-dimethylnicotinamide] | 508 nM | 32% | No IP | 6% |  |  |
| COc1cccc([C@@](O)(C(=O)NCCCC2CCN(c3ccc(C(=O)N(C)C)c(Cl)n3)CC2)C(F)(F)F)c1.O=C(O)C(F)(F)F [Example 5-20, (R)-2-chloro-N,N-dimethyl-6-(4-(3-(3,3,3-trifluoro-2-hydroxy-2-(3-methoxyphenyl)propanamido)propyl)piperidin-1-yl)nicotinamide] | 230 nM | 69% | No IP | 17% |  |  |
| CN(C)C(=O)c1ccc(N2CCC(CCCNC(=O)[C@](O)(c3cccc(C4CC4)c3)C(F)(F)F)CC2)nc1Cl [Example 5-14, (R)-2-chloro-6-(4-(3-(2-(3-cyclopropylphenyl)-3,3,3-trifluoro-2-hydroxy-propanamido)propyl)piperidin-1-yl)-N,N-dimethylnicotinamide] | 207 nM | 44% | No IP | 0% |  |  |
| CN(C)C(=O)c1ccc(N2CCC(CCCN(C)C(=O)[C@]3(c4ccccc4)CC(F)(F)CO3)CC2)nc1Cl [Example 1-66, (R)-2-chloro-6-(4-(3-(4,4-difluoro-N-methyl-2-phenyltetrahydrofuran-2-carboxamido)propyl)piperidin-1-yl)-N,N-dimethylnicotinamide] | 138 nM | 82% | No IP | 7% |  |  |
| CN(C)C(=O)c1ccc(N2CCC(CCCN(C)C(=O)[C@](O)(c3cccc(OC(F)(F)F)c3)C(F)(F)F)CC2)nc1Cl [Example 1-40, (R)-2-chloro-N,N-dimethyl-6-(4-(3-(3,3,3-trifluoro-2-hydroxy-N-methyl-2-(3-(trifluoromethoxy)phenyl)propanamido)propyl)piperidin-1-yl)nicotinamide] | 52 nM | 63% | No IP | 0% |  |  |
| CN(C)C(=O)c1ccc(N2CCC(CCCN(C)C(=O)[C@@](O)(c3cccc(C(F)(F)F)c3)C(F)(F)F)CC2)nc1Cl [Example 1-48, (S)-2-chloro-N,N-dimethyl-6-(4-(3-(3,3,3-trifluoro-2-hydroxy-N-methyl-2-(3-(trifluoromethyl)phenyl)pro-panamido)propyl)piperidin-1-yl)nicotinamide] | 333 nM | 43% | No IP | 2% |  |  |
| CN(C)C(=O)c1ccc(N2CCC(CCCN(C)C(=O)[C@@](O)(c3cccc(C4CC4)c3)C(F)(F)F)CC2)nc1Cl [Example 1-34, (S)-2-chloro-6-(4-(3-(2-(3-cyclopropylphenyl)-3,3,3-trifluoro-2-hdyroxy-N-methylpropanamido)propyl)piperidin-1-yl)-N,N-dimethylnicotinamide] | 261 nM | 49% | No IP | 16% |  |  |
| COc1cccc([C@@](O)(C(=O)Nc2ccc(C3CCN(c4ccc(C(=O)N(C)C)c(Cl)n4)CC3)cc2)C(F)(F)F)c1 [Example 10-1, (R)-2-chloro-N,N-dimethyl-6-(4-(4-(3,3,3-trifluoro-2-hydroxy-2-(3-methoxyphenyl)propanamido)phenyl)piperidin-1-yl)nicotinamide] | 1350 nM | 65% | No IP | 0% |  |  |
